# According to patent publication US9902703B2, “Somatostatin modulators and uses thereof” (Crinetics Pharmaceuticals, Inc., priority 2015, dated 2018):
# Target: T1, human somatostatin receptor subtype 2 (Homo sapiens, UniProt P30874)
# T1 construct: expressed in transfected cells; host or cells: CHO (Chinese hamster ovary) cells, G-418 selected
# Test: cAMP assay (functional assay for SSTR2 agonists)
# Assay type: cell-based
# Conditions: CHO cells expressing human SSTR2; intracellular cAMP with forskolin, HTRF; read-out: SSTR2a EC50
# From the text: Functional Assay for SSTR2 Agonists
# General overview: All five SSTR subtypes are Gi coupled G-protein coupled receptors (GPCRs) that lead to decreases in intracellular cyclic AMP (cAMP) when activated by an agonist. Therefore, measurement of intracellular cAMP levels can be used to assess whether compounds of the invention are agonists of SSTR subtypes (John Kelly, Troy Stevens, W. Joseph Thompson, and Roland Seifert, Current Protocols in Pharmacology, 2005, 2.2.1-2.2). One example of an intracellular cAMP assay is described below.
# One day prior to the assay, 40,000 Chinese hamster ovary (CHO) cells expressing the human somatostatin receptor subtype 2 are plated in each well of a 96-well tissue culture plate in DM-MEM growth media (Gibco) with the following additives: 10% fetal bovine serum (Gibco), 100 U/mL penicillin (Gibco), 100 ug/mL streptomycin (Gibco), 10 mM HEPES (Gibco), 1.2 mM sodium hydroxide, 0.5 mg/mL G-418 (Gibco)). The cells are cultured overnight at 37° C., 5% CO2 and 95% humidity. On the day of the assay, the media is aspirated and the cells are washed with 1× Dulbecco's phosphate buffered saline (Gibco). Next, 5 μL of assay buffer (1× Earle's Balanced Salt Solution (Gibco), 5 mM MgCl2, 10 mM HEPES, 0.1% bovine serum albumin, 0.2 mM 3-Isobutyl-1-methylxanthine (IBMX, Biomol Research Labs)) and forskolin is added. Various dilutions of the compounds of the invention are prepared in assay buffer and 5 μL of the dilutions are added to the cultured cells and incubated for 15 minutes at 37° C. […] 10 μL of lysis buffer (HRTF cAMP kit, Cisbio) containing cAMP detection and visualization antibodies are added and the assay is allowed incubate for 1-24 hours at room temperature. The intracellular cAMP concentrations are then measured using a commercially available detection kit (for example, the cAMP HTRF kit, Cisbio). The measured intracellular cAMP concentrations are plotted vs. the concentration of the compounds of the invention and the EC50 of the compounds are calculated using standard methods.
# T1 sequence (P30874 whole entry): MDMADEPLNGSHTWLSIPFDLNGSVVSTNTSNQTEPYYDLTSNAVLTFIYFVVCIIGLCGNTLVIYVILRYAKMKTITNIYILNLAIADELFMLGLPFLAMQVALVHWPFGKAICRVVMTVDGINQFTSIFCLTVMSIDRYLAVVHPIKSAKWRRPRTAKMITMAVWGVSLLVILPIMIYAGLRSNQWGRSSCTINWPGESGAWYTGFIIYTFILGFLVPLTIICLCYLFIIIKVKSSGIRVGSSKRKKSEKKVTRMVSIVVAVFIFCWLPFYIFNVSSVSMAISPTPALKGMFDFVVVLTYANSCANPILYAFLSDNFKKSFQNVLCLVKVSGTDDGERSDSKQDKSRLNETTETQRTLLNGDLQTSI
row,SMILES,EC50
1,"Cc1cc(Cl)cc(N2C=Nc3cc(C)c(-c4cccc(S(C)(=O)=O)c4)cc3C2C(=O)N(C)C[C@@H]2CCCN2)c1 (stereo partly drawn) [Compound 1-46, 3-(3-chloro-5-methylphenyl)-6-(3-methanesulfonylphenyl)-N,7-dimethyl-N-[(2S)-pyrrolidin-2-ylmethyl]-3,4-dihydroquinazoline-4-carboxamide]",100 to 1000 nM
2,"Cc1cc(Cl)cc(N2C=Nc3cc(C)c(-c4cccc(-c5nnn[nH]5)c4)cc3C2C(=O)N(C)C[C@@H]2CCCN2)c1 (stereo partly drawn) [Compound 1-47, 3-(3-chloro-5-methylphenyl)-N,7-dimethyl-N-[(2S)-pyrrolidin-2-ylmethyl]-6-[3-(1H-1,2,3,4-tetrazol-5-yl)phenyl]-3,4-dihydroquinazoline-4-carboxamide]",< 100 nM
3,"Cc1cc(Cl)cc(N2C=Nc3cc(C)c(-c4cc(O)cc(C#N)c4)cc3C2C(=O)N(C)C[C@@H]2CCCN2)c1 (stereo partly drawn) [Compound 1-48, 3-(3-chloro-5-methylphenyl)-6-(3-cyano-5-hydroxyphenyl)-N,7-dimethyl-N-[(2S)-pyrrolidin-2-ylmethyl]-3,4-dihydroquinazoline-4-carboxamide]",< 100 nM
4,"CCOC(=O)Cc1cccc(-c2cc3c(cc2C)N=CN(c2cc(C)cc(Cl)c2)C3C(=O)N(C)C[C@@H]2CCCN2)c1 (stereo partly drawn) [Compound 1-49, ethyl 2-{3-[3-(3-chloro-5-methylphenyl)-7-methyl-4-{methyl[(2S)-pyrrolidin-2-ylmethyl]carbamoyl}-3,4-dihydroquinazolin-6-yl]phenyl}acetate]",100 to 1000 nM
5,"Cc1cc(Cl)cc(N2C=Nc3ccc(-c4cc(O)cc(F)c4)cc3C2C(=O)N(C)C[C@@H]2CCCN2)c1 (stereo partly drawn) [Compound 1-50, 3-(3-chloro-5-methylphenyl)-6-(3-fluoro-5-hydroxyphenyl)-N-methyl-N-[(2S)-pyrrolidin-2-ylmethyl]-3,4-dihydroquinazoline-4-carboxamide]",< 100 nM
6,"Cc1cc(C)cc(N2C=Nc3cc(C)c(-c4cccc(O)c4)cc3C2C(=O)NC[C@@H]2CCCN2)c1 (stereo partly drawn) [Compound 1-51, 3-(3,5-dimethylphenyl)-6-(3-hydroxyphenyl)-7-methyl-N-[(2S)-pyrrolidin-2-ylmethyl]-3,4-dihydroquinazoline-4-carboxamide]",1000 to 10000 nM
7,"COc1cc(F)cc(N2C=Nc3cc(C)c(-c4cc(O)ccc4F)cc3C2C(=O)N(C)C[C@@H]2CCCN2C)c1 (stereo partly drawn) [Compound 1-52, 6-(2-fluoro-5-hydroxyphenyl)-3-(3-fluoro-5-methoxyphenyl)-N,7-dimethyl-N-{[(2S)-1-methylpyrrolidin-2-yl]methyl}-3,4-dihydroquinazoline-4-carboxamide]",< 100 nM
8,"Cc1cc(Cl)cc(N2C=Nc3cc(C)c(-c4cccc(CC(=O)O)c4)cc3C2C(=O)N(C)C[C@@H]2CCCN2)c1 (stereo partly drawn) [Compound 1-53, 2-{3-[3-(3-chloro-5-methylphenyl)-7-methyl-4-{methyl[(2S)-pyrrolidin-2-ylmethyl]carbamoyl}-3,4-dihydroquinazolin-6-yl]phenyl}acetic acid]",< 100 nM
9,"Cc1cc(F)cc(N2C=Nc3cc(C)c(-c4cc(O)cc(C#N)c4)cc3C2C(=O)N(C)C[C@@H]2CCCN2)c1 (stereo partly drawn) [Compound 1-54, 6-(3-cyano-5-hydroxyphenyl)-3-(3-fluoro-5-methylphenyl)-N,7-dimethyl-N-[(2S)-pyrrolidin-2-ylmethyl]-3,4-dihydroquinazoline-4-carboxamide]",< 100 nM
10,"Cc1cc(Cl)cc(N2C=Nc3cc(C)c(-c4cccc(O)c4)cc3C2C(=O)N(C)C[C@@H]2CC(F)(F)CN2)c1 (stereo partly drawn) [Compound 1-55, 3-(3-chloro-5-methylphenyl)-N-{[(2S)-4,4-difluoropyrrolidin-2-yl]methyl}-6-(3-hydroxyphenyl)-N,7-dimethyl-3,4-dihydroquinazoline-4-carboxamide]",< 100 nM
11,"Cc1cc(Cl)cc(N2C=Nc3cc(C)c(-c4cccc(O)c4)cc3C2C(=O)N(C)C[C@@H]2C[C@@H](F)CN2)c1 (stereo partly drawn) [Compound 1-56, 3-(3-chloro-5-methylphenyl)-N-{[(2S,4R)-4-fluoropyrrolidin-2-yl]methyl}-6-(3-hydroxyphenyl)-N,7-dimethyl-3,4-dihydroquinazoline-4-carboxamide]",< 100 nM
12,"Cc1cc(Cl)cc(N2C=Nc3cc(Cl)c(-c4cccc(O)c4)cc3C2C(=O)N(C)C[C@@H]2CCCN2)c1 (stereo partly drawn) [Compound 1-72, 7-chloro-3-(3-chloro-5-methylphenyl)-6-(3-hydroxyphenyl)-N-methyl-N-((S)-pyrrolidin-2-ylmethyl)-3,4-dihydroquinazoline-4-carboxamide]",< 100 nM

# Other lines, results leading:
row,EC50,SMILES
1,100 to 1000 nM,"Cc1cc(Cl)cc(N2C=Nc3cc(C)c(-c4cnn(C)c4)cc3C2C(=O)N(C)C[C@@H]2CCCN2)c1 (stereo partly drawn) [Compound 2-1, 3-(3-chloro-5-methylphenyl)-N,7-dimethyl-6-(1-methyl-1H-pyrazol-4-yl)-N-[(2S)-pyrrolidin-2-ylmethyl]-3,4-dihydroquinazoline-4-carboxamide]"
2,100 to 1000 nM,"Cc1cc(Cl)cc(N2C=Nc3cc(C)c(-c4cccnc4)cc3C2C(=O)N(C)C[C@@H]2CCCN2)c1 (stereo partly drawn) [Compound 2-2, 3-(3-chloro-5-methylphenyl)-N,7-dimethyl-6-(pyridin-3-yl)-N-[(2S)-pyrrolidin-2-ylmethyl]-3,4-dihydroquinazoline-4-carboxamide]"
3,< 100 nM,"COc1ccc(Cl)c(-c2cc3c(cc2C)N=CN(c2cc(C)cc(Cl)c2)C3C(=O)N(C)C[C@@H]2CCCN2)c1 (stereo partly drawn) [Compound 2-3, 6-(2-chloro-5-methoxyphenyl)-3-(3-chloro-5-methylphenyl)-N,7-dimethyl-N-[(2S)-pyrrolidin-2-ylmethyl]-3,4-dihydroquinazoline-4-carboxamide]"
4,< 100 nM,"COc1ccc(C)c(-c2cc3c(cc2C)N=CN(c2cc(C)cc(Cl)c2)C3C(=O)N(C)C[C@@H]2CCCN2)c1 (stereo partly drawn) [Compound 2-4, 3-(3-chloro-5-methylphenyl)-6-(5-methoxy-2-methylphenyl)-N,7-dimethyl-N-[(2S)-pyrrolidin-2-ylmethyl]-3,4-dihydroquinazoline-4-carboxamide]"
5,< 100 nM,"COc1ccc(F)c(-c2cc3c(cc2C)N=CN(c2cc(C)cc(Cl)c2)C3C(=O)N(C)C[C@@H]2CCCN2)c1 (stereo partly drawn) [Compound 2-5, 3-(3-chloro-5-methylphenyl)-6-(2-fluoro-5-methoxyphenyl)-N,7-dimethyl-N-[(2S)-pyrrolidin-2-ylmethyl]-3,4-dihydroquinazoline-4-carboxamide]"
6,100 to 1000 nM,"Cc1cc(Cl)cc(N2C=Nc3cc(C)c(-c4cccc(NS(C)(=O)=O)c4)cc3C2C(=O)N(C)C[C@@H]2CCCN2)c1 (stereo partly drawn) [Compound 2-6, 3-(3-chloro-5-methylphenyl)-6-(3-methanesulfonamidophenyl)-N,7-dimethyl-N-[(2S)-pyrrolidin-2-ylmethyl]-3,4-dihydroquinazoline-4-carboxamide]"
7,< 100 nM,"Cc1cc(Cl)cc(N2C=Nc3cc(C)c(-c4cccc(F)c4C)cc3C2C(=O)N(C)C[C@@H]2CCCN2)c1 (stereo partly drawn) [Compound 2-7, 3-(3-chloro-5-methylphenyl)-6-(3-fluoro-2-methylphenyl)-N,7-dimethyl-N-[(2S)-pyrrolidin-2-ylmethyl]-3,4-dihydroquinazoline-4-carboxamide]"
8,< 100 nM,"Cc1cc(Cl)cc(N2C=Nc3cc(C)c(-c4ccc(F)cc4C)cc3C2C(=O)N(C)C[C@@H]2CCCN2)c1 (stereo partly drawn) [Compound 2-8, 3-(3-chloro-5-methylphenyl)-6-(4-fluoro-2-methylphenyl)-N,7-dimethyl-N-[(2S)-pyrrolidin-2-ylmethyl]-3,4-dihydroquinazoline-4-carboxamide]"
9,< 100 nM,"Cc1cc(Cl)cc(N2C=Nc3cc(C)c(-c4cc(F)cc(C(N)=O)c4)cc3C2C(=O)N(C)C[C@@H]2CCCN2)c1 (stereo partly drawn) [Compound 2-9, 6-(3-carbamoyl-5-fluorophenyl)-3-(3-chloro-5-methylphenyl)-N,7-dimethyl-N-[(2S)-pyrrolidin-2-ylmethyl]-3,4-dihydroquinazoline-4-carboxamide]"
10,< 100 nM,"Cc1cc(Cl)cc(N2C=Nc3cc(C)c(-c4cncc(O)c4)cc3C2C(=O)N(C)C[C@@H]2CCCN2)c1 (stereo partly drawn) [Compound 2-10, 3-(3-chloro-5-methylphenyl)-6-(5-hydroxypyridin-3-yl)-N,7-dimethyl-N-[(2S)-pyrrolidin-2-ylmethyl]-3,4-dihydroquinazoline-4-carboxamide]"
11,< 100 nM,"Cc1cc(Cl)cc(N2C=Nc3cc(C)c(-c4cccc(C(N)=O)n4)cc3C2C(=O)N(C)C[C@@H]2CCCN2)c1 (stereo partly drawn) [Compound 2-11, 6-(6-carbamoylpyridin-2-yl)-3-(3-chloro-5-methylphenyl)-N,7-dimethyl-N-[(2S)-pyrrolidin-2-ylmethyl]-3,4-dihydroquinazoline-4-carboxamide]"
12,< 100 nM,"Cc1cc(Cl)cc(N2C=Nc3cc(C)c(-c4c(C)cccc4F)cc3C2C(=O)N(C)C[C@@H]2CCCN2)c1 (stereo partly drawn) [Compound 2-12, 3-(3-chloro-5-methylphenyl)-6-(2-fluoro-6-methylphenyl)-N,7-dimethyl-N-[(2S)-pyrrolidin-2-ylmethyl]-3,4-dihydroquinazoline-4-carboxamide]"
